Where two headings read alike, the source gives them in different places.

Consider three molecules from patent US10294202B2, “Pyrrolidinones as herbicides” (FMC Corporation, priority 2013, dated 2019).

The test system of one test is barnyardgrass. The experiment in a line: Test A pre-/postemergence herbicide test. It counts as in vivo, Echinochloa crus-galli. Particulars: for pest or weed control at 1000 g/ha: 1000 g ai/ha. A digest of the protocol:
(§1)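 Approximately 10 days after treatment in the greenhouse, plants were compared with untreated controls and given a 0–100 visual injury rating. Applications: preemergence directed soil spray; postemergence on 2–10 cm plants at the one- to two-leaf stage.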

The test system of a further test is pigweed. Briefly: Test A pre-/postemergence herbicide test. It counts as in vivo, Amaranthus retroflexus. Conditions: for pest or weed control at 500 g/ha / pest or weed control at 1000 g/ha: Amaranthus retroflexus, 240 h, read-out: Plant response rating, Pigweed; for pest or weed control at 1000 g/ha: 1000 g ai/ha. A digest of the protocol:
as §1

Another test relates to ryegrass, Italian. The experiment in a line: Test C pre-/postemergence herbicide test. It counts as in vivo, Lolium multiflorum. A digest of the protocol:
(§2)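 Plants grown and held in a greenhouse for 13 to 15 days post-spray, then rated 0–100 by visual comparison with controls. Pre treatments targeted seeds in loam and sand; post treatments targeted 1- to 4-leaf plants in peat-based potting medium.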

The next test relates to morningglory. The experiment in a line: Test C pre-/postemergence herbicide test. It counts as in vivo, Ipomoea coccinea. The method in brief:
as §2

For a further test, the system named is nutsedge, yellow. Briefly: Test C pre-/postemergence herbicide test. It counts as in vivo, Cyperus esculentus. The method in brief:
as §2

The subject of another test is soybean. Briefly: Test C pre-/postemergence herbicide test. It counts as in vivo, Glycine max. A digest of the protocol: as §2
A further test has as its system oat, wild. Briefly: Test C pre-/postemergence herbicide test. It counts as in vivo, Avena fatua. An excerpt:
Seeds of plant species selected from blackgrass (Alopecurus myosuroides), ryegrass, Italian (Italian ryegrass, Lolium multiflorum), wheat (winter wheat, Triticum aestivum), galium (catchweed bedstraw, Galium aparine), corn (Zea mays), crabgrass, large (large crabgrass, Digitaria sanguinalis), foxtail, giant (giant foxtail, Setaria faberii), johnsongrass (Sorghum halepense), lambsquarters (Chenopodium album), morningglory (Ipomoea coccinea), nutsedge, yellow (yellow nutsedge, Cyperus esculentus), pigweed (Amaranthus retroflexus), ragweed (common ragweed, Ambrosia elatior), soybean (Glycine max), barnyardgrass (Echinochloa crus-galli), oilseed rape (Brassica napus), waterhemp (common waterhemp, Amaranthus rudis), kochia (Kochia scoparia), oat, wild (wild oat, Avena fatua), surinam grass (Brachiaria decumbens), foxtail, green (green foxtail, Setaria viridis), goosegrass (Eleusine indica), bromegrass, downy (downy bromegrass, Bromus tectorum), nightshade (eastern black nightshade, Solanum ptycanthum), cocklebur (common cocklebur, Xanthium strumarium), cupgrass, woolly (woolly cupgrass, Eriochloa villosa), bermudagrass (Cynodon dactylon), sunflower, (common oilseed sunflower, Helianthus annuus), Russian thistle (Salsola kali) and velvetleaf (Abutilon theophrasti) were planted into a blend of loam soil and sand and treated preemergence with test chemicals formulated in a non-phytotoxic solvent mixture which included a surfactant. At the same time, plants selected from these crop and weed species and also barley (winter barley, Hordeum vulgare), […]), chickweed (common chickweed, Stellaria media), deadnettle (henbit deadnettle, Lamium amplexicaule), and canarygrass (littleseed canarygrass, Phalaris minor) were planted in pots containing Redi-Earth® planting medium (Scotts Company, 14111 Scottslawn Road, Marysville, Ohio 43041) comprising spaghnum peat moss, vermiculite, wetting agent and starter nutrients and treated with postemergence applications of test chemicals formulated in the same manner. Plants ranged in height from 2 to 18 cm (1- to 4-leaf stage) for postemergence treatments. Treated plants and controls were maintained in a greenhouse for 13 to 15 days, after which time all species were compared to controls and visually evaluated. Plant response ratings, summarized in Table C, are based on a scale of 0 to 100 where 0 is no effect and 100 is complete control. A dash (-) response means no test result.

Setting [1] is: Postemergence, 125 g ai/ha, 0 to 100 scale, 0 no effect, 100 complete control.
Setting [2] is: Postemergence, 500 g ai/ha, 0 to 100 scale (0 no effect, 100 complete control).
[3] abbreviates: Preemergence, 125 g ai/ha, visual rating on 0 to 100 scale (0 no effect, 100 complete control).
Setting [4] is: Preemergence, 62 g ai/ha, scale 0 to 100.
[5] abbreviates: Preemergence, 125 g ai/ha, scale 0 to 100 (0 no effect, 100 complete control).
The mark [6] stands for this setting: Postemergence, 31 g ai/ha, scale 0 (no effect) to 100 (complete control).
[7] abbreviates: Postemergence, 62 g ai/ha, scale 0 to 100 (0 no effect, 100 complete control).
The mark [8] stands for this setting: Postemergence, 125 g ai/ha, scale 0 to 100 (0 no effect, 100 complete control).
Where [9] appears, read: Postemergence, 250 g ai/ha, scale 0 to 100 (0 no effect, 100 complete control).

`O=C1NCC(c2ccc(Cl)c(Cl)c2)C1C(=O)Nc1ccccc1F` (racemic) [Compound 14]: the “Plant response rating, Barnyardgrass” value with barnyardgrass (setting [1]) came to 60; with barnyardgrass (setting [2]), 80; in the test on barnyardgrass (preemergence, 500 g ai/ha, 0 to 100 scale (0 no effect, 100 complete control)), 90. For the same molecule, the “Barnyardgrass plant response rating” value with barnyardgrass (setting [3]) worked out at 80. Moreover, the “Plant response rating, Pigweed” value is listed as 0 with pigweed (setting [1]); 0 in the test on pigweed (setting [2]); 20 in the test with pigweed (preemergence, 500 g ai/ha, 0 to 100 scale). The “Pigweed plant response rating” value in the test on pigweed (setting [3]) was determined as 0. Moreover, the “Plant response rating, Ryegrass, Italian” value in the test on ryegrass, Italian (setting [4]) is recorded as 0; in the test on ryegrass, Italian (setting [5]), 0. The “Plant response rating, Morningglory” value with morningglory (setting [4]) and in the test on morningglory (setting [5]) was 0 throughout. In addition, the “Plant response rating, Nutsedge, Yellow” value in the test with nutsedge, yellow (setting [4]) was 0; in the test on nutsedge, yellow (setting [5]) it was 0. The “Plant response rating, Soybean” value in the test on soybean (setting [4]) and in the test with soybean (setting [5]) was 0 each time. In addition, the “Plant response rating, Oat, Wild” value in the test on oat, wild (setting [4]) is 0; in the test with oat, wild (setting [5]) it was 0.

On to `O=C1NCCC1C(=O)N(c1ccc(F)c(F)c1)c1ccccc1F` (centres unmarked) [Compound 5, N-(3,4-difluorophenyl)-N-(2-fluorophenyl)-2-oxo-3-pyrrolidinecarboxamide], for which, in the test on barnyardgrass (Echinochloa crus-galli, post-emergence, 240 h, Postemergence, 125 g ai/ha, 0 to 100 scale, 0 no effect, 100 complete control, read-out: Plant response rating, Barnyardgrass), the pest or weed control at 125 g/ha was found to be 60%. Besides, the pest or weed control at 500 g/ha in the test on barnyardgrass (Echinochloa crus-galli, post-emergence, 240 h, Postemergence, 500 g ai/ha, 0 to 100 scale (0 no effect, 100 complete control), read-out: Plant response rating, Barnyardgrass) worked out at 90%; in the test on barnyardgrass (Echinochloa crus-galli, pre-emergence, 240 h, preemergence, 500 g ai/ha, 0 to 100 scale (0 no effect, 100 complete control), read-out: Plant response rating, Barnyardgrass), 90%; in the test on pigweed (post-emergence, Postemergence, 500 g ai/ha, 0 to 100 scale (0 no effect, 100 complete control)), 0%; in the test with pigweed (pre-emergence, preemergence, 500 g ai/ha, 0 to 100 scale), 0%. Further, the “Barnyardgrass plant response rating” value in the test with barnyardgrass (setting [3]) was determined as 70. For the same molecule, in the test on pigweed (setting [3]), the “Pigweed plant response rating” value is listed as 0. Besides, the “Plant response rating, Ryegrass, Italian” value in the test on ryegrass, Italian (setting [4]) is on record as 0; with ryegrass, Italian (setting [5]) it was 0. Besides, the “Plant response rating, Morningglory” value with morningglory (setting [4]) and with morningglory (setting [5]) was 0 throughout. In addition, the “Plant response rating, Nutsedge, Yellow” value in the test on nutsedge, yellow (setting [4]) came out at 0; in the test on nutsedge, yellow (setting [5]), 0. Further, the “Plant response rating, Soybean” value with soybean (setting [4]) and with soybean (setting [5]) was 0 in each case. The “Plant response rating, Oat, Wild” value in the test on oat, wild (setting [4]) is 0; with oat, wild (setting [5]), 0.

For `O=C1NCC(c2ccc(F)c(F)c2)C1C(=O)Nc1cccc(F)c1F` (centres unmarked) [Compound 17, N-(2,3-difluorophenyl)-4-(3,4-difluorophenyl)-2-oxo-3-pyrrolidinecarboxamide], the pest or weed control at 1000 g/ha in the test on barnyardgrass (Echinochloa crus-galli, post-emergence, 240 h, Postemergence, 0 to 100 scale (0 no effect, 100 complete control), read-out: Plant response rating, Barnyardgrass) worked out at 90%; in the test on barnyardgrass (Echinochloa crus-galli, pre-emergence, 240 h, Preemergence, visual rating on 0 to 100 scale (0 no effect, 100 complete control), approx. 10 days, read-out: Plant response rating, Barnyardgrass) it was 90%; in the test with pigweed (post-emergence, Postemergence, 0 to 100 scale (0 no effect, 100 complete control)), 40%; in the test on pigweed (pre-emergence, Preemergence, visual rating on 0 to 100 scale (0 no effect, 100 complete control), approx. 10 days) it was 50%. Besides, the “Plant response rating, Ryegrass, Italian” value with ryegrass, Italian (setting [6]) stood at 0; with ryegrass, Italian (setting [7]), 0; in the test on ryegrass, Italian (setting [8]) it was 0; in the test on ryegrass, Italian (setting [9]), 5; with ryegrass, Italian (setting [4]) it was 5; in the test with ryegrass, Italian (setting [5]) it was 35. In addition, the “Plant response rating, Morningglory” value with morningglory (setting [6]), with morningglory (setting [7]), in the test on morningglory (setting [8]), with morningglory (setting [9]) and in the test on morningglory (setting [4]) was 0 in each case. Moreover, the “Plant response rating, Nutsedge, Yellow” value in the test on nutsedge, yellow (setting [6]) amounted to 0; in the test on nutsedge, yellow (setting [7]), 0; in the test on nutsedge, yellow (setting [8]) it was 0; in the test on nutsedge, yellow (setting [9]), 0; with nutsedge, yellow (setting [4]) it was 0; in the test with nutsedge, yellow (setting [5]) it was 0. Also, the “Plant response rating, Soybean” value with soybean (setting [6]), in the test on soybean (setting [7]), in the test with soybean (setting [8]), in the test with soybean (setting [9]), with soybean (setting [4]) and with soybean (setting [5]) was 0 throughout. Also, the “Plant response rating, Oat, Wild” value turned out to be 0 in the test with oat, wild (setting [6]); 0 in the test with oat, wild (setting [7]); 0 with oat, wild (setting [8]); 0 with oat, wild (setting [9]); 0 with oat, wild (setting [4]); 0 in the test on oat, wild (setting [5]).
